Data: patent US20140371165A1, “Identification of NSC23925 Isomers to Reverse Multidrug Resistance in Human Cancers” (priority 2012, published 2014)
Where a name gives a salt, the structure may show the parent alone.

Key:
[1] = Solubility in organic solvents; type: physicochemical
[2] = test system: MCF-7adr; assay: M30-Apoptosense ELISA apoptosis assay in MCF-7adr; type: cell-based, human; conditions: NSC23925b 1 μM with doxorubicin 0.5 μM, 72 hours
Description: Apoptosis was evaluated using the M30-Apoptosense ELISA assay kit (Peviva AB, Bromma, Sweden) according to the manufacturer's instructions. For the doxorubicin and NSC23925b treatment, MCF-7adr or SW480TR cells were seeded at 8,000 cells/per well in a 96-well plate for 24 hours before treatment. The cells were then treated with 0.5 μM of doxorubicin, 1 μM of NSC23925b, or a combination of the two drugs for an additional 72 hours. The cells were then lysed by an additional […] of 10% NP40 per well, following the manufacturer's instructions for apoptosis assay.
The effect of NSC23925b on the doxorubicin induction of apoptosis was assessed in MCF-7adr or SW480TR. cell lines. Cells were treated with either doxorubicin (0.5 μM) alone, NSC23925b (1 μM) alone, or a combination of doxorubicin and NSC23925b for 72 hours. Apoptosis was scored using the M30-Apoptosense ELISA assay.

[3] = test system: SW480TR; assay: MTT cytotoxicity assay and reversal of MDR in SW480TR; type: cell-based, human
Source text: A panel of parental cancer cell line and their daughter resistant cell lines, displaying MDR phenotype were used in this study. Human ovarian cancer cell line SKOV-3, breast cancer cell line MCF-7 and colon cancer cell line SW480, the osteosarcoma cell line U-2OS, KHOS, uterine sarcoma cell line MESSA and its doxorubicin selected drug resistant cell line MESSA/Dx5, non-small cell lung cancer cell line H-69 and its doxorubicin selected drug resistant cell line H-69AR (overexpress MRP1) were obtained from the ATCC (Rockville, Md.). Dr. Efstathios Gonos (Institute of Biological Research & Biotechnology, Athens, Greece) provided the doxorubicin resistant U-2OS R2 (referred in the text below as U-2OSDR), KHOS R2 cell lines. Dr. Erasmus Schneider (Wadsworth Center, Albany) provided the mitoxantrane resistant breast cancer MCF-7/MX (overexpress BCRP) cell line. All the cell lines were cultured in RPMI 1640 (Invitrogen, Carlsbad, Calif.) supplemented with 10% fetal bovine serum, 100-units/ml penicillin and 100 μg/ml streptomycin (Invitrogen). Cells were incubated at 37° C. in 5% CO2-95% air atmosphere and passaged when near confluent monolayers were achieved using 2% trypsin-EDTA solution. […] The fresh chemotherapy drugs were obtained from the pharmacy at the Massachusetts General Hospital and stored at −20° C.
To evaluate for reversal of Pgp-mediated MDR, SKOV-3TR, MCF-7adr and SW480TR cell lines were seeded into 96-well tissue culture plate at 2,000 cells per well with varying concentrations of chemotherapy drugs and NSC23925b for 6 days. Cell proliferation IC50 (concentration required for 50% inhibition) and MDR reversal IC50 were determined from dose-response curves carried out in triplicate in 96-well plate. Fold of reverse resistance for individual drugs were defined as the IC50 of MDR cells without NSC23925b treatment divided by the IC50 of MDR cells treated with NSC23925b. […] Drug cytotoxicity was assessed in vitro using the MTT assay as previously described. […] Response curves were fitted with use of GraphPad PRISM 4 software (GraphPad Software).
MCF-7adr and SW480TR cells were treated with paclitaxel (FIGS. 2A-B), doxorubicin (FIGS. 2C-D) or mitoxantrane (FIGS. 2E-F) and NSC23925b in RPMI1640 complete media at the indicated concentrations. The relative sensitivity of each line to the indicated drugs was determined by MTT analysis 6 days post-treatment.

## COc1ccc(-c2cc([C@H](O)[C@H]3CCCCN3)c3ccccc3n2)cc1 [NSC23925b, (2-(4-methoxyphenyl)quinolin-4-yl)(piperidin-2-yl)methanol hydrochloride]
[1]; either, ethyl acetate, chloroform, dichloromethane, acetone, tetrahydrofuran, cyclohexane, cyclopentane, hexanes, pentane
  solubility in other solvents: not soluble
[1]; methanol
  solubility in methanol: soluble
[1]; volume of methanol for 5 milligram
  5 milligram solubility in methanol: 450 µL
[2]
  cell death / apoptosis, combination versus either drug alone: significantly greater cell death
[3]; Doxorubicin, NSC23925b 0.1 μM
  fold-reversal of drug resistance: 1.7 fold
[3]; Doxorubicin, NSC23925b 0.5 μM
  fold-reversal of drug resistance: 3 fold
[3]; Doxorubicin, NSC23925b 1 μM
  fold-reversal of drug resistance: 8 fold
[3]; MTT 6 days post-treatment
  reverse paclitaxel, doxorubicin, and mitoxantrane resistance: able to reverse
[3]; Mitoxantrane, NSC23925b 0.1 μM
  fold-reversal of drug resistance: 1.2 fold
[3]; Mitoxantrane, NSC23925b 0.5 μM
  fold-reversal of drug resistance: 3 fold
[3]; Mitoxantrane, NSC23925b 1 μM
  fold-reversal of drug resistance: 14 fold
[3]; Paclitaxel, NSC23925b 0.1 μM
  fold-reversal of drug resistance: 1.3 fold
[3]; Paclitaxel, NSC23925b 0.5 μM
  fold-reversal of drug resistance: 8 fold
[3]; Paclitaxel, NSC23925b 1 μM
  fold-reversal of drug resistance: 13 fold
